# According to ChEMBL document CHEMBL1128610, “Synthesis of potential -lactam antibiotics” (1995):
# The source made the active and inactive calls. No cut-off for these calls is given here.
# Legend:
# [1] = system: Escherichia coli; assay: Compound was evaluated for antibacterial activity against Escherichia coli ATCC 25922; Inactive; type: functional, organism-based
# [2] = system: Staphylococcus aureus; assay: Compound was evaluated for antibacterial activity against Staphylococcus aureus ATCC 29213; Inactive; type: functional, organism-based
# [3] = system: Escherichia coli; assay: Minimum inhibitory concentration required for antibacterial activity against Escherichia coli ATCC 25922; type: functional
# [4] = system: Staphylococcus aureus; assay: Minimum inhibitory concentration required for antibacterial activity against Staphylococcus aureus ATCC 29213; type: functional
SMILES,MIC [1],MIC [2],MIC [3] [mg/L],MIC [4] [mg/L]
CO/N=C(\C(=O)N[C@H]1CON(C(Oc2ccc(Cl)cc2)C(=O)O)C1=O)c1csc(N)n1 (stereo in doubt; 4f),inactive,inactive,,
O=C(COc1ccccc1)N[C@H]1CON(S(=O)(=O)[O-])C1=O.[K+],,,> 500,> 500
CO/N=C(\C(=O)N[C@H]1CON(C(Oc2ccccc2)C(=O)O)C1=O)c1csc(N)n1 (stereo in doubt; 4b),inactive,inactive,,
CO/N=C(\C(=O)N[C@H]1CON(C(Oc2ccc(F)cc2)C(=O)O)C1=O)c1csc(N)n1 (stereo in doubt; 4e),inactive,inactive,,
CO/N=C(\C(=O)N[C@H]1CON(C(Oc2ccc(F)cc2)C(=O)O)C1=O)c1csc(N)n1 (stereo in doubt; 4d),inactive,inactive,,
CCOC(C(=O)[O-])N1OC[C@H](NC(=O)c2ccccc2)C1=O.[K+] (stereo partly specified),,,> 1000,> 1000
CO/N=C(\C(=O)N[C@H]1CON(C(Oc2ccc(Cl)cc2)C(=O)O)C1=O)c1csc(N)n1 (stereo in doubt; 4g),inactive,inactive,,
CO/N=C(\C(=O)N[C@H]1CON(C(Oc2ccccc2)C(=O)O)C1=O)c1csc(N)n1 (stereo in doubt; 4c),inactive,inactive,,
